According to US20240024338A1, “CARBIDOPA AND L-DOPA PRODRUGS AND METHODS OF USE” (AbbVie Inc., priority 2016, published 2024):

Assays:
[1] = In vitro bioconversion study (skin homogenates), human; conditions: human skin homogenate 3 mg/mL, prodrug 2.5 μg/mL, 37° C.
[2] = In vitro bioconversion study, human liver microsomes; format: in vitro ADME; conditions: human liver microsomes 1 mg/mL, prodrug 2.5 μg/mL, 37° C.
Description: (§2) The in vitro bioconversion of the L-dopa phosphate prodrugs to L-dopa and the carbidopa phosphate prodrugs to carbidopa was evaluated in several studies. In brief, the L-dopa and carbidopa phosphate prodrugs (2.5 μg/mL) were incubated with tissue homogenate or fractions from rats, mini-pigs, or human, including blood, skin homogenate (3 mg/mL), liver microsomes (1 mg/mL), liver S9 fraction (1 mg/mL), kidney S9 fraction (1 mg/mL), and intestine S9 fractions (1 mg/mL). The reaction mixtures were incubated at 37° C. for 5 to 6 time points within 1 to 2 hours. At the end of each time point, the reaction mixtures were quenched by 2 to 3 volumes of 5% trichloroacetic acid in water. After quenching, the mixtures were centrifuged at 3000 rpm for 20 minutes, and the supernatants were analyzed by LC-MS for quantitation of the prodrug, L-dopa or carbidopa. The in vitro bioconversion was assessed by monitoring both time-dependent depletion of the prodrug and the formation of the corresponding L-dopa or carbidopa.

[3] = In vitro bioconversion study (skin homogenates), mini-pig; conditions: mini-pig skin homogenate 3 mg/mL, prodrug 2.5 μg/mL, 37° C.
[4] = In vitro bioconversion study (blood), human; format: in vitro ADME; conditions: prodrug 2.5 μg/mL, 37° C.
Description: as §2

[5] = In vitro bioconversion study (blood), mini-pig; format: in vitro ADME; conditions: prodrug 2.5 μg/mL, 37° C.
Description: as §2

[6] = 1-Day stability study of prodrugs in aqueous solution; format: physicochemical; conditions: aqueous solution 80 μg/mL, ambient storage
Description: The L-dopa phosphate prodrugs and the carbidopa phosphate prodrugs were evaluated in a stability study.

[7] = Phosphate prodrug solubility study in water; format: physicochemical; conditions: for Solubility: water, ambient, visual assessment; for solubility compared to L-dopa and carbidopa (FIG. 1): pH of 7.4
Description: The L-dopa phosphate prodrugs and the carbidopa phosphate prodrugs were evaluated in a solubility study. The solubility values of the phosphate prodrugs in water under ambient conditions were determined by visual assessment. Table 13-A reports the results of the study, including the measured values for L-dopa and carbidopa.

[8] = In vitro bioconversion study (blood), rat; conditions: prodrug 2.5 μg/mL, 37° C.
Description: The in vitro bioconversion of the L-dopa phosphate prodrugs to L-dopa and the carbidopa phosphate prodrugs to carbidopa was evaluated in several studies. […] The reaction mixtures were incubated at 37° C. for 5 to 6 time points within 1 to 2 hours. At the end of each time point, the reaction mixtures were quenched by 2 to 3 volumes of 5% trichloroacetic acid in water. After quenching, the mixtures were centrifuged at 3000 rpm for 20 minutes, and the supernatants were analyzed by LC-MS for quantitation of the prodrug, L-dopa or carbidopa. The in vitro bioconversion was assessed by monitoring both time-dependent depletion of the prodrug and the formation of the corresponding L-dopa or carbidopa.

[9] = In vitro bioconversion study (skin homogenates), rat; conditions: rat skin homogenate 3 mg/mL, prodrug 2.5 μg/mL, 37° C.
[10] = for Bioconversion ratio (prodrug to active drug), Value: projected for human, mean of ratios observed in preclinical animals
[11] = In vitro bioconversion study, liver S9 fraction, mini-pig; format: in vitro ADME; conditions: mini-pig liver S9 fraction 1 mg/mL, prodrug 2.5 μg/mL, 37° C.
Description: as §2

[12] = In vitro bioconversion study, liver S9 fraction, rat; format: in vitro ADME; conditions: rat liver S9 fraction 1 mg/mL, prodrug 2.5 μg/mL, 37° C.
Description: as §2

[13] = L-dopa 4′-monophosphate/carbidopa 4′-monophosphate 4:1, 16-hour subcutaneous infusion in rats; format: in vivo; conditions: 4:1, SC bolus 60/14 mg/kg then infusion 300/71 mg/kg
Description: After 1.5 hours, the combination was dosed again via continuous infusion at a dose of 300/71 mg/kg over next 14.5 hours. Blood samples were collected at […], 0.25, 1, 6, 16, and 24 hours post dose. […] FIG. 7 provides a time-concentration profile for L-dopa and L-dopa 4′-monophosphate blood levels after administration of the combination of 4′-monophosphate prodrugs at a 4:1 ratio. […] Steady state concentration of ˜1 μg/mL was maintained over the infusion period for carbidopa. […] FIG. 9 provides a time-concentration profile for carbidopa and carbidopa 4′-monophosphate blood levels after administration of the combination of 4′-monophosphate prodrugs at a 4:1 ratio.

[14] = In vitro bioconversion study, liver S9 fraction, human; format: in vitro ADME; conditions: human liver S9 fraction 1 mg/mL, prodrug 2.5 μg/mL, 37° C.
Description: as §2

[15] = In vitro bioconversion study (intestinal S9 fractions), rat; format: in vitro ADME; conditions: rat intestinal S9 fraction 1 mg/mL, prodrug 2.5 μg/mL, 37° C.
Description: (§1) The t1/2 appeared to be shorter in human intestinal S9 than in rat intestinal S9.

[16] = In vitro bioconversion study, kidney S9 fraction, rat; format: in vitro ADME; conditions: rat kidney S9 fraction 1 mg/mL, prodrug 2.5 μg/mL, 37° C.
Description: as §2

[17] = In vitro bioconversion study (intestinal S9 fractions), human; format: in vitro ADME; conditions: human intestinal S9 fraction 1 mg/mL, prodrug 2.5 μg/mL, 37° C.
Description: as §1

[18] = 7-Day stability study, 4′ monophosphate combination solution; format: physicochemical; conditions: combination solution: L-dopa 4′-monophosphate 200 mg/mL + carbidopa 4′-monophosphate 50 mg/mL, pH 7.4, room temperature
Description: In addition, a solution combining the L-dopa 4′-monophosphate at 200 mg/mL and carbidopa 4′-monophosphate at 50 mg/mL was monitored over 7 days at room temperature. These samples were prepared with and without purging with nitrogen to remove oxygen.

[19] = In vitro bioconversion study, kidney S9 fraction, human; format: in vitro ADME; conditions: human kidney S9 fraction 1 mg/mL, prodrug 2.5 μg/mL, 37° C.
Description: as §2

[20] = 15:1 L-dopa 4′-monophosphate/carbidopa 4′-monophosphate 16-hour SC infusion in mini-pigs; conditions: 15:1, 48/3.2 mg/kg
Description: In this study, the pig received a 16-hour subcutaneous infusion of a combination of the L-dopa 4′-monophosphate and the carbidopa 4′-monophosphate together in an aqueous solution at a dose ratio of 15:1 without an initial bolus dose. The doses were 48/3.2 mg/kg for L-dopa 4′-monophosphate and the carbidopa 4′-monophosphate, respectively.

[21] = 1-Day stability study, diphosphate combination solution; format: physicochemical; conditions: combination solution: L-dopa 3′,4′-diphosphate 35 mg/mL + carbidopa 3′,4′-diphosphate 8.7 mg/mL, pH 6.2, room temperature, nitrogen purged
Description: In addition, a solution combining the diphosphates of each compound (L-dopa 3′, 4′-diphosphate at 35 mg/mL and carbidopa 3′, 4′-diphosphate at 8.7 mg/mL) was monitored over one day at room temperature. This sample was purged with nitrogen to remove oxygen.

[22] = listed as 4′-phosphate prodrug of L-dopa
[23] = listed as 4′-phosphate prodrug of carbidopa
[24] = listed as 3′,4′-diphosphate prodrug of carbidopa
[25] = listed as diphosphate prodrug of carbidopa

SMILES	L-Dopa or Carbidopa Formation [1]	T1/2 [1]	stability and formation of L-dopa or carbidopa [2]	L-Dopa or Carbidopa Formation [3]	T1/2 [3]	L-Dopa or Carbidopa Formation [4]	L-Dopa or Carbidopa Formation [5]	L-Dopa or Carbidopa Formation [8]	T1/2 [8] [min]	L-Dopa or Carbidopa Formation [9]	T1/2 [9]	CLp (plasma clearance), Value ([10]; human) [L/h]	stability and formation of L-dopa or carbidopa [11]	stability and formation of L-dopa or carbidopa [12]	stability and formation of L-dopa or carbidopa [14]	L-Dopa or Carbidopa Formation [15]	stability and formation of L-dopa or carbidopa [16]	L-Dopa or Carbidopa Formation [17]	stability and formation of L-dopa or carbidopa [19]	further results
N[C@@H](Cc1ccc(O)c(OP(=O)(O)O)c1)C(=O)O [L-dopa 3′-phosphate]	Yes	673 min	stable without formation of L-dopa or carbidopa observed	Yes	885 min	Yes	Yes	Yes	20.6	Yes	737 min									T1/2 [4]: 28 min; T1/2 [5]: 8.8 min; % Remaining After One Day ([6]; pH 7.0): >99%; Solubility ([7]; pH 7.0, Crystalline): >161 mg/mL
N[C@@H](Cc1ccc(O)c(O)c1)C(=O)O [L-dopa, L-3,4-dihydroxyphenylalanine]												24								CLp Levodopa ([10]; human): 24 L/h
N[C@@H](Cc1ccc(OP(=O)(O)O)c(O)c1)C(=O)O [L-dopa 4′-phosphate, (S)-2-amino-3-(3-hydroxy-4-(phosphonooxy)phenyl)propanoic acid]	Yes			Yes				Yes				100	stable without formation of L-dopa or carbidopa observed	stable without formation of L-dopa or carbidopa observed	stable without formation of L-dopa or carbidopa observed	Yes	stable without formation of L-dopa or carbidopa observed	Yes	stable without formation of L-dopa or carbidopa observed	exposure of remaining L-dopa 4′-monophosphate as % of levodopa [13]: ~22%; SC F (subcutaneous bioavailability), Value ([10]; human): 0.75; Bioconversion ratio (prodrug to active drug), Value [10]: 0.9; T1/2 [15, 22]: rapidly dephosphorylated; T1/2 [17, 22]: rapidly dephosphorylated; % Remaining After 7 Days ([18]; Nitrogen Purged): >99%; % Remaining After 7 Days ([18]; Non-Purged): >99%; % Remaining After One Day ([6]; pH 7.0): >99%; solubility compared to L-dopa and carbidopa (FIG. 1) [7]: increased solubility; exposure of remaining L-dopa 4′-monophosphate as % of the levodopa exposure [20]: ~10%
C[C@@](Cc1ccc(OP(=O)(O)O)c(O)c1)(NN)C(=O)O [Carbidopa 4′-phosphate, Carbidopa 4′-monophosphate]	Yes		stable without formation of L-dopa or carbidopa observed	Yes				Yes				141	stable without formation of L-dopa or carbidopa observed	stable without formation of L-dopa or carbidopa observed	stable without formation of L-dopa or carbidopa observed	Yes	stable without formation of L-dopa or carbidopa observed	Yes	stable without formation of L-dopa or carbidopa observed	exposure of remaining carbidopa 4′-monophosphate as % of carbidopa [13]: ~8%; SC F (subcutaneous bioavailability), Value ([10]; human): 0.65; Bioconversion ratio (prodrug to active drug), Value [10]: 0.7; T1/2 [15, 23]: rapidly dephosphorylated; T1/2 [17, 23]: rapidly dephosphorylated; % Remaining After 7 Days ([18]; Nitrogen Purged): >99%; % Remaining After 7 Days ([18]; Non-Purged): >97%; % Remaining After One Day ([6]; pH 6.8): >98%; solubility compared to L-dopa and carbidopa (FIG. 1) [7]: increased solubility; exposure of remaining carbidopa 4′-monophosphate as % of the carbidopa exposure [20]: ~22%
C[C@@](Cc1ccc(OP(=O)(O)O)c(OP(=O)(O)O)c1)(NN)C(=O)O [Carbidopa 3′,4′-diphosphate]	No	stable	stable without formation of L-dopa or carbidopa observed	No	stable	No	No	Yes	53	No	stable		stable without formation of L-dopa or carbidopa observed	stable without formation of L-dopa or carbidopa observed	stable without formation of L-dopa or carbidopa observed	Yes	stable without formation of L-dopa or carbidopa observed	Yes	stable without formation of L-dopa or carbidopa observed	T1/2 [4, 24]: stable; T1/2 [4, 25]: not dephosphorylated; T1/2 [15, 25]: rapidly dephosphorylated; T1/2 [5, 24]: stable; T1/2 [5, 25]: not dephosphorylated; T1/2 [17, 25]: rapidly dephosphorylated; % Remaining After One Day ([6]; pH 6.8): >97%; Solubility ([7]; pH 5.5, Amorphous): >247 mg/mL; % Remaining After One Day [21]: >99%
C[C@@](Cc1ccc(O)c(O)c1)(NN)C(=O)O [Carbidopa, (2S)-3-(3,4-dihydroxyphenyl)-2-hydrazino-2-methylpropanoic acid]												18								
C[C@@](Cc1ccc(O)c(OP(=O)(O)O)c1)(NN)C(=O)O [Carbidopa 3′-phosphate, Carbidopa 3′-monophosphate]	Yes	602 min		Yes	413 min	Yes	Yes	Yes	20.5	Yes	724 min									T1/2 [4]: 58 min; T1/2 [5]: 8.9 min; % Remaining After One Day ([6]; pH 6.5): >94%; Solubility ([7]; pH 7.1, Amorphous): >96 mg/mL
